The series can be described thus: Metabolic stability in rat liver microsomes (RLMs). As to conditions: for TIC value at 0 min: 0 min incubation, Ox (+16)/(+32), deMe (-14)/(-28) = mass adducts (metabolites); for TIC value at 0 min / TIC value at 5 min / TIC value at 15 min / TIC value at 30 min / TIC value at 60 min: LCMS TIC, individual replicates R1-R3, protein 0.5 mg/ml; for TIC value at 5 min: 5 min incubation; for TIC value at 15 min: 15 min incubation; for TIC value at 30 min: 30 min incubation; for TIC value at 60 min: 60 min incubation; for half-life / microsomal CLint: rat, microsomes. Background: Liver microsomes are vesicles of endoplasmic reticulum, rich in cytochrome P450 enzymes.

[1] abbreviates: Half Life Mean, rat liver microsomes, mean of R1-R3.
Setting [2] is: Half Life, rat liver microsomes, individual replicates R1-R3.
[3] abbreviates: RLM CL Mean, rat liver microsomes, mean of R1-R3.
Where [4] appears, read: RLM CL, rat liver microsomes, individual replicates R1-R3, incubation volume 400 ul, protein 0.5 mg/ml.
Where [5] appears, read: Metabolic stability: RLM CL (ul/min/mg), RLMs, mean and SD, three measurements.
Setting [6] is: Half-life (T1/2) in RLMs, 10 μM peptide, 37 °C, mean and s.d. of three measurements.
The mark [7] stands for this setting: Metabolic stability: Half life T1/2 (min), RLMs, mean and SD, three measurements.

Values joined by “and” are separate entries in the source; they are usually repeats but may differ in a detail not shown here. Identical values can stand only once.

In general, half-life refers to the time needed for the level to fall by half in the phase considered. A high value points to slow loss. The microsomal CLint is a measure of how fast metabolising enzymes remove a compound, apart from limits set by blood flow. A lower microsomal CLint goes with greater metabolic stability. For `O=C(Cc1c[nH]c2ccccc12)N[C@H]1CSCCS(=O)(=O)CCSCCNC(=O)C2(CCCC2)NC(=O)[C@@H]2CCCN2C1=O` [compound 5], for the setting “rat liver microsomes”, the “TIC value at 0 min” value is 4100940 (2×) and 3001933; the “TIC value at 5 min” value is 3877569 and 3883518 and 2646636; the “TIC value at 15 min” value was 3731666 and 3678603 and 2895431; the “TIC value at 30 min” value is 3163475 and 3179511 and 2181012. Further, where the note is “rat liver microsomes”, the “TIC value at 60 min” value was 2955229 and 3322280 and 1801495. The half-life under setting [1] is over 60 min. Moreover, under setting [2], the half-life is over 60 min. This compound also showed an intrinsic clearance (microsomal CLint) under setting [3] of 14.1 µL/min/mg. This compound also showed a microsomal CLint under setting [4] of 12.6 µL/min/mg.

In the case of `O=C1CSCCNC(=O)c2ccc(cc2)CNC(=O)[C@@H](NC(=O)C2CCS(=O)(=O)CC2)CCNC(=O)CCSC1` [compound 6], under “rat liver microsomes”, the “TIC value at 0 min” value was 880057 (2×) and 553202; the “TIC value at 5 min” value is 821271 and 965964 and 386285; the “TIC value at 15 min” value was 765281 and 1161804 and 367708; the “TIC value at 30 min” value is 697748 and 898601 and 342582. Further, where the note is “rat liver microsomes”, the “TIC value at 60 min” value is 664165 and 808479 and 323125. This compound also came in with a half-life under setting [2] of 50.6 min. Under setting [5], this compound showed a microsomal CLint of 16.6 ± 7.6 µL/min/mg. Moreover, the microsomal CLint under setting [3] is 16.6 µL/min/mg.

Consider `O=C1C[C@@H]2CCCN2C(=O)[C@@H](NC(=O)c2cccc(Cl)c2)CSCc2cccc(n2)CSCCNC(=O)[C@H](Cc2c[nH]c3ccccc23)N1` [compound 7], for which, under “rat liver microsomes”, the “TIC value at 0 min” value is 3550654 (2×) and 4325681. For the setting “rat liver microsomes”, the “TIC value at 5 min” value is 3349041 and 3673040 and 3817703. Besides, the “TIC value at 15 min” value (rat liver microsomes) is 2080247 and 3097312 and 2624551. Moreover, the “TIC value at 30 min” value (rat liver microsomes) is 1705819 and 1909847 and 1817380. Further, the “TIC value at 60 min” value (rat liver microsomes) is 1049135 and 1421730 and 1465716. Also, the half-life runs as follows: under setting [1], 31.3 min; under setting [2], 28.4 min; under setting [6], 31 ± 5 min; under setting [7], 31 ± 5 min. The intrinsic metabolic clearance (microsomal CLint) came to 45 ± 6 µL/min/mg under setting [5], 45.2 µL/min/mg under setting [3] and 48.8 µL/min/mg under setting [4].

Take `CN1CCC(=O)NCCSCC(=O)CSC[C@H](NC(=O)c2cccc(C(F)(F)F)c2)C(=O)N2CCC[C@@H](C2)C1=O` [compound 8]: the “TIC value at 0 min” value (rat liver microsomes) is 6751463 (2×) and 7547988. Besides, for the setting “rat liver microsomes”, the “TIC value at 5 min” value was 6145465 and 6292775 and 6289651. Moreover, the “TIC value at 15 min” value (rat liver microsomes) is 3895721 and 6301539 and 5568669. The “TIC value at 30 min” value (rat liver microsomes) was 3369766 and 4709220 and 3894141. For the same compound, the “TIC value at 60 min” value (rat liver microsomes) is 1916782 and 2986882 and 2251799. For the same compound, the half-life under setting [1] came out at 37.4 min, the half-life under setting [2] stood at 28.1 min, the half-life under setting [6] is 37 ± 10 min and the half-life under setting [7] stood at 37 ± 10 min. For the same compound, the intrinsic clearance (microsomal CLint) is 40 ± 9 µL/min/mg under setting [5], 39.6 µL/min/mg under setting [3] and 49.2 µL/min/mg under setting [4].

As to `Cn1nccc1C(=O)N1CCC2(CC1)NC(=O)[C@H](CC1CCCCC1)NC(=O)CCSCc1cccc(n1)CSCCNC2=O` [compound 9], the “TIC value at 0 min” value (rat liver microsomes) is 15547492 (2×) and 14631455. Moreover, the “TIC value at 5 min” value (rat liver microsomes) is 12759369 and 8856874 and 13246148. In addition, the “TIC value at 15 min” value (rat liver microsomes) was 8028101 and 6898172 and 9892349. Besides, the “TIC value at 30 min” value (rat liver microsomes) is 4900968 and 4228902 and 5914854. Besides, the “TIC value at 60 min” value (rat liver microsomes) is 1719220 and 1798352 and 2620253. Also, the half-life was 22.3 min under setting [1], 17.3 min under setting [2], 22 ± 4 min under setting [6] and 22 ± 4 min under setting [7]. The intrinsic clearance (microsomal CLint) is 64 ± 11 µL/min/mg under setting [5], 64.1 µL/min/mg under setting [3] and 80.2 µL/min/mg under setting [4].

Regarding `CC(C)[C@@H]1NC(=O)CCSCCS(=O)(=O)CCSCCNC(=O)[C@H](CNC(=O)c2ccco2)NC1=O` [compound 10], under “rat liver microsomes”, the “TIC value at 0 min” value is 5136707 (2×) and 3317301; the “TIC value at 5 min” value was 5335426 and 4509848 and 3329443; the “TIC value at 15 min” value was 4513948 and 3668718 and 2626547; the “TIC value at 30 min” value was 4035558 and 3666920 and 2228136. For the setting “rat liver microsomes”, the “TIC value at 60 min” value was 3223521 and 2515297 and 2382324. Under setting [1], this compound returned a half-life of over 60 min. The same compound came in with a half-life under setting [2] of over 60 min. The compound further showed a microsomal CLint under setting [5] of 17.6 ± 2.6 µL/min/mg. The compound further returned an intrinsic clearance (microsomal CLint) under setting [3] of 17.6 µL/min/mg. Under setting [4], the microsomal CLint came out at 15.4 µL/min/mg.

For `O=C1CC2CCN(CC2)C(=O)[C@@H](NC(=O)c2cc(F)cc(F)c2)CSCc2ccc(cc2)CSCCNC(=O)[C@H](Cc2ccccc2)N1` [peptide 1], where the note is “rat liver microsomes”, the “TIC value at 0 min” value is 4586491 (2×) and 3645847. Where the note is “rat liver microsomes”, the “TIC value at 5 min” value is 3654952 and 3734486 and 3061802. For the same compound, the “TIC value at 15 min” value (rat liver microsomes) is 1752251 and 2543021 and 981764. Moreover, where the note is “rat liver microsomes”, the “TIC value at 30 min” value was 740144 and 790714 and 195334. For the setting “rat liver microsomes”, the “TIC value at 60 min” value is 105910 and 231909 and 39522. Also, the half-life runs as follows: under setting [1], 11.5 min; under setting [2], 11.6 min; under setting [6], 11 min; under setting [7], 11.5 ± 1.7 min. In addition, the microsomal CLint was found to be 123 ± 18 µL/min/mg under setting [5], 123 µL/min/mg under setting [3] and 119 µL/min/mg under setting [4].

For `O=C(N[C@H]1CSC/C=C\CSCCNC(=O)C2(CC2)CNC(=O)[C@H](CO)NC1=O)c1cccnc1` [peptide 2], under “rat liver microsomes”, the “TIC value at 0 min” value is 4300369 (2×) and 5050392; the “TIC value at 5 min” value is 4094044 and 4040957 and 4614305; the “TIC value at 15 min” value is 4065591 and 3605857 and 4671032; the “TIC value at 30 min” value was 3778445 and 3534653 and 4132452. Further, where the note is “rat liver microsomes”, the “TIC value at 60 min” value is 3236121 and 3689440 and 3984891. In addition, under setting [1], the half-life was over 60 min. Also, under setting [2], the half-life was over 60 min. The intrinsic metabolic clearance (microsomal CLint) under setting [5] stood at 10.7 ± 1.9 µL/min/mg. Under setting [3], this compound came in with a microsomal CLint of 10.7 µL/min/mg. The same compound yielded an intrinsic metabolic clearance (microsomal CLint) under setting [4] of 9.21 µL/min/mg.

Consider `COc1ccc(CC(=O)N[C@H]2Cc3ccc(cc3)CNC(=O)c3cccc(c3)CNC(=O)CCSCc3ccc(cc3)CSCCNC2=O)cc1OC` [peptide 3], for which the “TIC value at 0 min” value (rat liver microsomes) was 1629049 (2×) and 1656894. Moreover, for the setting “rat liver microsomes”, the “TIC value at 5 min” value is 1396633 and 1109599 and 1416564. Also, for the setting “rat liver microsomes”, the “TIC value at 15 min” value was 688706 and 808072 and 696583. The “TIC value at 30 min” value (rat liver microsomes) was 432016 and 448206 and 497739. Also, the “TIC value at 60 min” value (rat liver microsomes) was 192689 and 235300 and 132050. Also, the half-life under setting [1] came to 16.9 min, the half-life under setting [2] turned out to be 15 min, the half-life under setting [6] came out at 16.9 ± 2.5 min and the half-life under setting [7] came out at 16.9 ± 2.5 min. Further, the microsomal CLint is, setting by setting: under setting [5], 84 ± 11 µL/min/mg; under setting [3], 83.8 µL/min/mg; under setting [4], 92.5 µL/min/mg.

Regarding `NC(=O)NCCC[C@@H]1NC(=O)C2CN(CCN2C(=O)C2CCCN2S(=O)(=O)c2ccc(F)cc2)C(=O)CCSC/C=C/CSCCNC1=O` (stereo partly shown) [peptide 4], the “TIC value at 0 min” value (rat liver microsomes) is 2209118 (2×) and 1061770. For the same compound, the “TIC value at 5 min” value (rat liver microsomes) was 1524575 and 1610332 and 921634. The “TIC value at 15 min” value (rat liver microsomes) was 1519207 and 1327718 and 738514. The “TIC value at 30 min” value (rat liver microsomes) was 1146033 and 1076120 and 486997. Further, the “TIC value at 60 min” value (rat liver microsomes) was 743609 and 590507 and 376829. Further, the half-life reads like this: under setting [1], 34.6 min; under setting [2], 31.2 min; under setting [6], 34 ± 4 min; under setting [7], 35 ± 4 min. Moreover, the intrinsic metabolic clearance (microsomal CLint) reads like this: under setting [5], 41 ± 5 µL/min/mg; under setting [3], 40.6 µL/min/mg; under setting [4], 44.4 µL/min/mg.

The values are drawn from publication PMC11062899, “De novo development of small cyclic peptides that are orally bioavailable” (Nature Chemical Biology, 2023).
